Experimental data: patent US9783485B1, “Crystalline inhibitor of 4-hydroxyphenylpyruvate dioxygenase, and a process of synthesis and crystallization thereof” (Dipharma S.A., priority 2016, dated 2017)

Assay: Stability studies of nitisinone obtained through the process of the invention (storage; appearance, KF water, HPLC assay, impurities by HPLC and HPLC/MS)
Assay type: physicochemical
Source text: When referring to purity determined by HPLC techniques, said chromatograms are gathered at a wavelength of 235 nm. […] The presence of impurity-4 was checked by reverse HPLC/MS using the method described in the table underneath. [table] [table]

stability (in words) (even in accelerated conditions, period of at least six months): extremely stable | impurity-4 content (in words) (independently from the storage conditions, reverse HPLC/MS): below the limit of quantification
Compound: O=C1CCCC(=O)C1C(=O)c1ccc(C(F)(F)F)cc1[N+](=O)[O-] [nitisinone, 2-(2-nitro-4-trifluoromethylbenzoyl)-1,3-cyclohexanedione]
